As usually defined, the EC50 is the midpoint of the concentration-response curve. Higher therefore signals weaker potency.

Common to all, as to assay: cAMP induction, firefly luciferase reporter assay in HEK293 cells co-transfected with receptor
Assay type in all cases: cell-based

One test addresses T1, glucagon receptor (Homo sapiens, UniProt P47871).
T1 construct: expressed in transfected cells; host or cells: HEK293
As to the method: (§1) The ability of glucagon analogs to induce cAMP was measured in a firefly luciferase-based reporter assay. […] At the end of the incubation 100 microliters of LucLite luminescence substrate reagent (Perkin-Elmer, Wellesley, Mass.) were added to each well. […] Effective 50% concentrations were calculated by using Origin software (OriginLab, Northampton, Mass.

Another test addresses T2, GLP-1 receptor (Homo sapiens, UniProt P43220).
T2 construct: expressed in transfected cells; host or cells: HEK293
As to the method:
as §1

The target of a further test is T3, GIP receptor (Homo sapiens, UniProt P48546).
T3 construct: expressed in transfected cells; host or cells: HEK293
T3 sequence (P48546 22-466): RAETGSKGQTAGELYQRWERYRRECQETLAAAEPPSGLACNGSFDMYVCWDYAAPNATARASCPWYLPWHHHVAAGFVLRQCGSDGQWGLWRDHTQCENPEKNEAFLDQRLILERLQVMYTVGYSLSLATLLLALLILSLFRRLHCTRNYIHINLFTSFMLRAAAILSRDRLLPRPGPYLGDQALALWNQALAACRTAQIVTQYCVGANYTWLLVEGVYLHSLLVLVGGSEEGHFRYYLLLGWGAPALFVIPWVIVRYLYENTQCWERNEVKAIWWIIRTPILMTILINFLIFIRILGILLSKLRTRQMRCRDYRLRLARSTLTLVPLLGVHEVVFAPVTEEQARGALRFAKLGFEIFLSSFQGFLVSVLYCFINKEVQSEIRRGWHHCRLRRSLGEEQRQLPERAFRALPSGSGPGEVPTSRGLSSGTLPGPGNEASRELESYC
As to the method:
as §1

Setting [1] is: Table 2, analogs of SEQ ID NO: 10.
Where [2] appears, read: Table 3, analogs of SEQ ID NO: 12.

Numbered stars: 1 amine (or outer) side, 2 acyl side, 3 side chain; on linkers, the order of the positions; unused ones are H or OH. Square brackets hold non-standard residues; d marks the D form. Side chains are listed from the residue outwards. Peptide text beside a SMILES is read from it. * marks the point of attachment. γGlu = O=C(O)[C@H](CCC(=O)[*:2])N[*:1]; Palmitoyl = CCCCCCCCCCCCCCCC(=O)*

T1 sequence (P47871 26-477): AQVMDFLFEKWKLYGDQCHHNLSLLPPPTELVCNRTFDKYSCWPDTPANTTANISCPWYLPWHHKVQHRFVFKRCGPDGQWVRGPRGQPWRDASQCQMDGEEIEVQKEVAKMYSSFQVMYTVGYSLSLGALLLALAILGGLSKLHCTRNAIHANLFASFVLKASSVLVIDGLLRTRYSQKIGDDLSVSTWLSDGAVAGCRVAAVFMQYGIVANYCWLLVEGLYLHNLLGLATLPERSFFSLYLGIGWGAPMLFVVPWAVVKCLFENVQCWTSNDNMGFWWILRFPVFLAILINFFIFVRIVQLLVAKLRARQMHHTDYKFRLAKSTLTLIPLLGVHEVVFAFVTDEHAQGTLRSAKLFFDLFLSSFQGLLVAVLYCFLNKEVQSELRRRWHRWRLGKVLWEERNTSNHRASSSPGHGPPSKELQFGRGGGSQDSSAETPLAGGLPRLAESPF
T2 sequence (P43220 24-463): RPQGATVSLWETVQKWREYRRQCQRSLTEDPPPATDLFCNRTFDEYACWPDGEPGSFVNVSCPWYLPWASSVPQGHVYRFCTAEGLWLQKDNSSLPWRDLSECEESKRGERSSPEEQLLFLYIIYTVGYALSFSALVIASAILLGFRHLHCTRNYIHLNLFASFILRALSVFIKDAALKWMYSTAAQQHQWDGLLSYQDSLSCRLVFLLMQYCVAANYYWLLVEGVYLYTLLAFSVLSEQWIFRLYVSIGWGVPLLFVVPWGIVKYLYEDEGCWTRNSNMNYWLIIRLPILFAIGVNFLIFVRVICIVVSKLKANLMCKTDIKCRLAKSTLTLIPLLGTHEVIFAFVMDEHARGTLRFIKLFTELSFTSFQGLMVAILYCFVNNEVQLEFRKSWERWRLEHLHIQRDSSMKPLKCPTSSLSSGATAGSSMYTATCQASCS

Consider `CCCCCCCCCCCCCCCC(=O)N[C@@H](CCC(=O)NCCCC[C@H](NC(=O)[C@H](CC(=O)O)NC(=O)[C@H](CO)NC(=O)[C@@H](NC(=O)[C@H](Cc1ccccc1)NC(=O)[C@@H](NC(=O)CNC(=O)[C@H](CCC(=O)O)NC(=O)[C@H](C)NC(=O)[C@@H](Cc1c[nH]cn1)NC(C)=O)[C@@H](C)O)[C@@H](C)O)C(=O)N[C@@H](CO)C(=O)N[C@@H](CCCCN)C(=O)N[C@@H](Cc1ccc(O)cc1)C(=O)N[C@@H](CC(C)C)C(=O)N[C@@H](CC(=O)O)C(=O)N[C@@H](CCC(=O)O)C(=O)N[C@@H](CCCNC(=N)N)C(=O)N[C@@H](C)C(=O)N[C@@H](C)C(=O)N[C@@H](CCC(N)=O)C(=O)N[C@@H](CC(=O)O)C(=O)N[C@@H](Cc1ccccc1)C(=O)N[C@H](C(=O)N[C@@H](CCC(N)=O)C(=O)N[C@@H](Cc1c[nH]c2ccccc12)C(=O)N[C@@H](CC(C)C)C(=O)N[C@@H](CC(C)C)C(=O)N[C@@H](CCC(=O)O)C(=O)NCC(=O)NCC(=O)N1CCC[C@H]1C(=O)N[C@@H](CO)C(=O)N[C@@H](CO)C(=O)NCC(=O)N[C@@H](C)C(=O)N1CCC[C@H]1C(=O)N1CCC[C@H]1C(=O)N1CCC[C@H]1C(=O)N[C@@H](CO)C(N)=O)C(C)C)C(=O)O` [compound 148], for which the values for the EC50 on glucagon receptor (setting [1]), on GLP-1 receptor (setting [1]) and on GIP receptor (setting [1]) were 0.178 nM, 0.002 nM and 0.007 nM, respectively.
Consider `CCCCCCCCCCCCCCCC(=O)N[C@@H](CCC(=O)NCCCC[C@H](NC(=O)[C@H](CC(=O)O)NC(=O)[C@H](CO)NC(=O)[C@@H](NC(=O)[C@H](Cc1ccccc1)NC(=O)[C@@H](NC(=O)CNC(=O)[C@H](CCC(N)=O)NC(=O)[C@H](C)NC(=O)[C@@H](Cc1ccccc1)NC(C)=O)[C@@H](C)O)[C@@H](C)O)C(=O)N[C@@H](CO)C(=O)N[C@@H](CCCCN)C(=O)N[C@@H](Cc1ccc(O)cc1)C(=O)N[C@@H](CC(C)C)C(=O)N[C@@H](CC(=O)O)C(=O)N[C@@H](CCC(=O)O)C(=O)N[C@@H](CCCNC(=N)N)C(=O)N[C@@H](C)C(=O)N[C@@H](C)C(=O)N[C@@H](CCC(N)=O)C(=O)N[C@@H](CC(=O)O)C(=O)N[C@@H](Cc1ccccc1)C(=O)N[C@H](C(=O)N[C@@H](CCC(N)=O)C(=O)N[C@@H](Cc1c[nH]c2ccccc12)C(=O)N[C@@H](CC(C)C)C(=O)N[C@@H](CC(C)C)C(=O)N[C@@H](CCC(=O)O)C(=O)NCC(=O)NCC(=O)N1CCC[C@H]1C(=O)N[C@@H](CO)C(=O)N[C@@H](CO)C(=O)NCC(=O)N[C@@H](C)C(=O)N1CCC[C@H]1C(=O)N1CCC[C@H]1C(=O)N1CCC[C@H]1C(=O)N[C@@H](CO)C(N)=O)C(C)C)C(=O)O` [compound 150], for which the EC50 was 0.014 nM at glucagon receptor (setting [1]), 0.002 nM on GLP-1 receptor (setting [1]) and 0.011 nM on GIP receptor (setting [1]).
For `CCCCCCCCCCCCCCCC(=O)N[C@@H](CCC(=O)NCCCC[C@H](NC(=O)[C@H](CC(=O)O)NC(=O)[C@H](CO)NC(=O)[C@@H](NC(=O)[C@H](Cc1ccccc1)NC(=O)[C@@H](NC(=O)CNC(=O)[C@H](CCC(N)=O)NC(=O)[C@H](C)NC(=O)[C@@H](Cc1c[nH]cn1)NC(C)=O)[C@@H](C)O)[C@@H](C)O)C(=O)N[C@@H](CO)C(=O)N[C@@H](CCCCN)C(=O)N[C@@H](Cc1ccc(O)cc1)C(=O)N[C@@H](CC(C)C)C(=O)N[C@@H](CC(=O)O)C(=O)N[C@@H](CCC(=O)O)C(=O)N[C@@H](CCCNC(=N)N)C(=O)N[C@@H](C)C(=O)N[C@@H](C)C(=O)N[C@@H](CCC(N)=O)C(=O)N[C@@H](CC(=O)O)C(=O)N[C@@H](Cc1ccccc1)C(=O)N[C@H](C(=O)N[C@@H](CCC(N)=O)C(=O)N[C@@H](Cc1c[nH]c2ccccc12)C(=O)N[C@@H](CC(C)C)C(=O)N[C@@H](CC(C)C)C(=O)N[C@@H](CCC(=O)O)C(=O)N[C@@H](C)C(=O)NCC(=O)N1CCC[C@H]1C(=O)N[C@@H](CO)C(=O)N[C@@H](CO)C(=O)NCC(=O)N[C@@H](C)C(=O)N1CCC[C@H]1C(=O)N1CCC[C@H]1C(=O)N1CCC[C@H]1C(=O)N[C@@H](CO)C(N)=O)C(C)C)C(=O)O` [compound 151] (Ac-[dH]AQGTFTSDK([γGlu-Palmitoyl])SKYLDERAAQDFVQWLLEAGPSSGAPPPS-NH2), in that order: 0.003 nM, 0.002 nM and 0.014 nM.
Regarding `CCCCCCCCCCCCCCCC(=O)N[C@@H](CCC(=O)NCCCC[C@H](NC(=O)[C@H](CC(=O)O)NC(=O)[C@H](CO)NC(=O)[C@@H](NC(=O)[C@H](Cc1ccccc1)NC(=O)[C@@H](NC(=O)CNC(=O)[C@H](CCC(N)=O)NC(=O)[C@H](C)NC(=O)[C@@H](Cc1ccc(O)cc1)NC(C)=O)[C@@H](C)O)[C@@H](C)O)C(=O)N[C@@H](CO)C(=O)N[C@@H](CCCCN)C(=O)N[C@@H](Cc1ccc(O)cc1)C(=O)N[C@@H](CC(C)C)C(=O)N[C@@H](CC(=O)O)C(=O)N[C@@H](CCC(=O)O)C(=O)N[C@@H](CCCNC(=N)N)C(=O)N[C@@H](C)C(=O)N[C@@H](C)C(=O)N[C@@H](CCC(N)=O)C(=O)N[C@@H](CC(=O)O)C(=O)N[C@@H](Cc1ccccc1)C(=O)N[C@H](C(=O)N[C@@H](CCC(N)=O)C(=O)N[C@@H](Cc1c[nH]c2ccccc12)C(=O)N[C@@H](CC(C)C)C(=O)N[C@@H](CC(C)C)C(=O)N[C@@H](CC(=O)O)C(=O)N[C@@H](CC(C)C)C(=O)NCC(=O)N1CCC[C@H]1C(=O)N[C@@H](CO)C(=O)N[C@@H](CO)C(=O)NCC(=O)N[C@@H](C)C(=O)N1CCC[C@H]1C(=O)N1CCC[C@H]1C(=O)N1CCC[C@H]1C(=O)N[C@@H](CO)C(N)=O)C(C)C)C(=O)O` [compound 153] (Ac-[dY]AQGTFTSDK([γGlu-Palmitoyl])SKYLDERAAQDFVQWLLDLGPSSGAPPPS-NH2), the EC50 turned out to be 0.021 nM at glucagon receptor (setting [2]), 0.017 nM on GLP-1 receptor (setting [2]) and 0.018 nM on GIP receptor (setting [2]).
As for `CCCCCCCCCCCCCCCC(=O)N[C@@H](CCC(=O)NCCCC[C@H](NC(=O)[C@H](CC(=O)O)NC(=O)[C@H](CO)NC(=O)[C@@H](NC(=O)[C@H](Cc1ccccc1)NC(=O)[C@@H](NC(=O)CNC(=O)[C@H](CCC(=O)O)NC(=O)[C@H](C)NC(=O)[C@@H](Cc1c[nH]cn1)NC(C)=O)[C@@H](C)O)[C@@H](C)O)C(=O)N[C@@H](CO)C(=O)N[C@@H](CCCCN)C(=O)N[C@@H](Cc1ccc(O)cc1)C(=O)N[C@@H](CC(C)C)C(=O)N[C@@H](CC(=O)O)C(=O)N[C@@H](CCC(=O)O)C(=O)N[C@@H](CCCNC(=N)N)C(=O)N[C@@H](C)C(=O)N[C@@H](C)C(=O)N[C@@H](CCC(N)=O)C(=O)N[C@@H](CC(=O)O)C(=O)N[C@@H](Cc1ccccc1)C(=O)N[C@H](C(=O)N[C@@H](CCC(N)=O)C(=O)N[C@@H](Cc1c[nH]c2ccccc12)C(=O)N[C@@H](CC(C)C)C(=O)N[C@@H](CC(C)C)C(=O)N[C@@H](CCC(=O)O)C(=O)N[C@@H](C)C(=O)NCC(=O)N1CCC[C@H]1C(=O)N[C@@H](CO)C(=O)N[C@@H](CO)C(=O)NCC(=O)N[C@@H](C)C(=O)N1CCC[C@H]1C(=O)N1CCC[C@H]1C(=O)N1CCC[C@H]1C(=O)N[C@@H](CO)C(N)=O)C(C)C)C(=O)O` [compound 154] (Ac-[dH]AEGTFTSDK([γGlu-Palmitoyl])SKYLDERAAQDFVQWLLEAGPSSGAPPPS-NH2), the EC50 stood at 0.847 nM at glucagon receptor (setting [1]), 0.004 nM on GLP-1 receptor (setting [1]) and 0.024 nM at GIP receptor (setting [1]).

These data come from patent US9868772B2 (INDIANA UNIVERSITY RESEARCH AND TECHNOLOGY CORPORATION, priority 2012, dated 2018).
